{
  "source": "paper PMC3034307",
  "about": "(Bioorganic & medicinal chemistry letters, 2010)",
  "key": {"Shp2 PTP [1]": {"biological_target": "T1, Shp2 PTP (Homo sapiens, UniProt Q06124)", "T1 sequence (Q06124 1-593)": "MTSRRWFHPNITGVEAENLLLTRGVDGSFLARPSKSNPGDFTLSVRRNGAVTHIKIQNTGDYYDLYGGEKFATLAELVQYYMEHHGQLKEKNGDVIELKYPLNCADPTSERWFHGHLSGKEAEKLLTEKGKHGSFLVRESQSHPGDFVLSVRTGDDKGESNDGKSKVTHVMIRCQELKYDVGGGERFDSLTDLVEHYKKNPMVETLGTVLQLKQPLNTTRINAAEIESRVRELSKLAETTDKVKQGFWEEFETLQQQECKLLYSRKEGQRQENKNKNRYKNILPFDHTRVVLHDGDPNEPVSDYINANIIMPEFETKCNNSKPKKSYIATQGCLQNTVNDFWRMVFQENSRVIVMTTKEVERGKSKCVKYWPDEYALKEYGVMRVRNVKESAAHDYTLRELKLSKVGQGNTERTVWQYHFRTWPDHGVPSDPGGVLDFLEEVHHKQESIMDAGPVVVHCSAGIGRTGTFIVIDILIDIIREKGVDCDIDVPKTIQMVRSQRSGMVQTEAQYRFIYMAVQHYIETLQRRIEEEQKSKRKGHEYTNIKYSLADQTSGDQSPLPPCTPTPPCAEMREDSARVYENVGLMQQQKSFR", "assay": "Shp2 PTP inhibition assay", "format": "biochemical", "settings": "for Inhibition of Shp2 PTP activity at the highest concentration tested: 300 µM"}, "Shp2": {"biological_target": "T2, Shp2 (Homo sapiens, UniProt Q06124)", "T2 sequence (Q06124 1-593)": "T1 sequence (Q06124 1-593)", "assay": "Surface plasmon resonance", "format": "binding", "settings": "SPR"}, "Shp2 PTP [2]": {"biological_target": "T1, Shp2 PTP", "assay": "Enzyme kinetic assay using DiFMUP as the substrate", "format": "biochemical"}},
  "data": [
    {"smiles": "C[C@]12CC[C@@H]3c4ccc(O)cc4CC[C@H]3[C@@H]1CC[C@@H]2O", "note": "[Estradiol, estradiol]", "values": [
      {"measurement": "Inhibition of Shp2 PTP activity at the highest concentration tested", "setting": "Shp2 PTP [1]", "result": "did not inhibit"}
    ]},
    {"smiles": "C[C@]12CC[C@@H]3c4ccc(OC(=O)N(CCCl)CCCl)cc4CC[C@H]3[C@@H]1CC[C@@H]2OP(=O)(O)O", "note": "[Estramustine phosphate, estramustine phosphate]", "values": [
      {"measurement": "association rate constant ka", "setting": "Shp2", "result": 2200, "unit": "M⁻¹ s⁻¹"},
      {"measurement": "Ki", "setting": "Shp2 PTP [2]", "result": 22.8, "unit": "µM"},
      {"measurement": "Inhibition kinetics (best fit)", "setting": "Shp2 PTP [2]; DiFMUP substrate", "result": "mixed inhibition kinetics"}
    ]},
    {"smiles": "C[C@]12CC[C@@H]3c4ccc(OC(=O)N(CCCl)CCCl)cc4CC[C@H]3[C@@H]1CC[C@@H]2O", "note": "[Estramustine, estramustine]", "values": [
      {"measurement": "Inhibition of Shp2 PTP activity at the highest concentration tested", "setting": "Shp2 PTP [1]", "result": "did not inhibit"}
    ]},
    {"smiles": "CC1=C(O)C(=O)C=C2C1=CC=C1[C@@]2(C)CC[C@@]2(C)[C@@H]3C[C@@H](C)C(=O)C[C@]3(C)CC[C@]12C", "note": "[Maitenin]", "values": [
      {"measurement": "Fold less potent than celastrol in Shp2 inhibition", "setting": "Shp2 PTP [1]", "result": 18, "unit": "fold"}
    ]},
    {"smiles": "COc1ccc2c(c1)CC[C@@H]1[C@@H]2CC[C@@]2(C)[C@H]1CC[C@@]21CCNP(=O)(N(CCCl)CCCl)O1", "note": "(stereo partly shown) [NSC233064]", "values": [
      {"measurement": "Inhibition of Shp2 PTP activity at the highest concentration tested", "setting": "Shp2 PTP [1]", "result": "did not inhibit"}
    ]}
  ]
}
